The values below come from patent US12398154B2, “Azaquinazoline pan-KRas inhibitors” (Mirati Therapeutics, Inc., priority 2020, dated 2025).

One assay has as its target KRas G12D (Homo sapiens, UniProt P01116, G12D). Put plainly: biochemical.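 Also: TR-FRET displacement binding assay on KRas, read after a one-hour incubation at room temperature, IC50 fitted from percent-of-control values.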
The next assay concerns the target KRas G12V (Homo sapiens, UniProt P01116, G12V). Put plainly: biochemical.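 Also: KRas binding measured by TR-FRET displacement at room temperature, IC50 fitted from percent of control values.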
The target in the next assay is KRas G12R (Homo sapiens, UniProt P01116, G12R). Put plainly: biochemical.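 Also: TR-FRET displacement assay of compound binding to KRas, read after one hour at room temperature, potency from a four-parameter fit of percent-of-control values.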
Another assay deals with pERK in MKN1 cells. Put plainly: Inhibition of KRas phosphorylation of ERK (Cisbio HTRF pERK assay). As to conditions: Homo sapiens, MKN-1, 3 h, read-out: Inhibition (HTRF IC50) of KRas-mediated Phosphorylation of ERK, MKN1. Background: Time-resolved FRET reads energy transfer from a long-lived donor to a nearby acceptor.
Another assay has as its system pERK in PSN1 cells. The assay is described as above. As to conditions: Homo sapiens, PSN1, 3 h, read-out: Inhibition (HTRF IC50) of KRas-mediated Phosphorylation of ERK, PSN1.
Another assay deals with pERK in ASPC1 cells. The description is as above. As to conditions: Homo sapiens, ASPC1, read-out: Inhibition (HTRF IC50) of KRas-mediated Phosphorylation of ERK, AsPC-1.
The subject of a further assay is pERK in H727 cells. The description is as above. Particulars: Homo sapiens, NCI-H727, read-out: Inhibition (HTRF IC50) of KRas-mediated Phosphorylation of ERK, H727.
The next assay relates to pERK in HCT116 cells. The assay is described as above. As to conditions: Homo sapiens, HCT-116, read-out: Inhibition (HTRF IC50) of KRas-mediated Phosphorylation of ERK, HCT116.

KRas G12V, sequence (P01116 1-169 isoform P01116-2 G12V): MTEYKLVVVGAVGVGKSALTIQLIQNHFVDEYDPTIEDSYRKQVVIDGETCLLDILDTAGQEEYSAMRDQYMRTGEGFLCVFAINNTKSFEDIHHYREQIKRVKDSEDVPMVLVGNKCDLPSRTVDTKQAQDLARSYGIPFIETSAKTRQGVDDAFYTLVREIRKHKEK
KRas G12R, sequence (P01116 1-169 isoform P01116-2 G12R): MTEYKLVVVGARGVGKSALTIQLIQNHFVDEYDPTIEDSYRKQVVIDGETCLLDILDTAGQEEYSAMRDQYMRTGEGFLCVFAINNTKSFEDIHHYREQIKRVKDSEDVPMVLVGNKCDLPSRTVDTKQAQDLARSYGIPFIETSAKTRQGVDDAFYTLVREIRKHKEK
KRas G12D, sequence (P01116 1-169 isoform P01116-2 G12D): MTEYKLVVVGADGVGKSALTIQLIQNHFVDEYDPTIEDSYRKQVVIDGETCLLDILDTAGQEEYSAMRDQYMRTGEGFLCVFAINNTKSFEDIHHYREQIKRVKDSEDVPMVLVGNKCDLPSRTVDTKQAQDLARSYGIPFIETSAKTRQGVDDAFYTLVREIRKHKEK

In general, IC50 refers to the concentration that inhibits the measured activity by half. Turning to `OCC1COCCN(c2nc(OC[C@@]34CCCN3C[C@H](F)C4)nc3c(F)c(-c4cc(O)cc5ccc(F)c(Br)c45)ncc23)C1` (stereo partly drawn) [Example 401, 5-bromo-6-fluoro-4-(8-fluoro-2-(((2R,7aS)-2-fluorohexahydro-1H-pyrrolizin-7a-yl)methoxy)-4-(6-(hydroxymethyl)-1,4-oxazepan-4-yl)pyrido[4,3-d]pyrimidin-7-yl)naphthalen-2-ol], the IC50 on KRas G12D is no more than 0.002 µM; against KRas G12V it was no more than 0.002 µM; against KRas G12R it was no more than 0.002 µM; in the assay on pERK in MKN1 cells, 0.082 µM; in the assay on pERK in PSN1 cells, 9.96 µM; with pERK in ASPC1 cells, 0.162 µM. Also, the IC50 in the assay on pERK in H727 cells was found to be 0.253 µM; in the assay with pERK in HCT116 cells, 1.15 µM.

With `CCc1c(F)ccc2cc(O)cc(-c3ncc4c(N5CCCn6nc(C(=O)N(C)C)cc6C5)nc(OCC5(CN(C)C)CC5)nc4c3F)c12` [Example 333, 5-(2-((1-((dimethylamino)methyl)cyclopropyl)methoxy)-7-(8-ethyl-7-fluoro-3-hydroxynaphthalen-1-yl)-8-fluoropyrido[4,3-d]pyrimidin-4-yl)-N,N-dimethyl-5,6,7,8-tetrahydro-4H-pyrazolo[1,5-a][1,4]diazepine-2-carboxamide], the IC50 at KRas G12D is no more than 0.002 µM; on KRas G12V, no more than 0.002 µM; against KRas G12R, 0.005 µM; with pERK in MKN1 cells, 0.425 µM; with pERK in PSN1 cells, no less than 10 µM; with pERK in ASPC1 cells, 0.603 µM. In addition, the values for the IC50 in the assay on pERK in H727 cells and with pERK in HCT116 cells were 2.11 µM and 9.19 µM, respectively.

For the compound `CCc1c(F)ccc2cc(O)cc(-c3ncc4c(N5CC6CCC(C6)C5)nc(OC[C@@]56CCCN5C[C@H](F)C6)nc4c3F)c12` [Example 350, 4-(4-(3-azabicyclo[3.2.I]octan-3-yl)-8-fluoro-2-(((2R,7aS)-2-fluorohexahydro-1H-pyrrolizin-7a-yl)methoxy)pyrido[4,3-d]pyrimidin-7-yl)-5-ethyl-6-fluoronaphthalen-2-ol], the IC50 at KRas G12D was 0.03 µM; against KRas G12V, 0.008 µM; against KRas G12R it was 0.008 µM; in the assay with pERK in MKN1 cells, 0.209 µM; in the assay on pERK in PSN1 cells it was no less than 10 µM; with pERK in ASPC1 cells, 0.241 µM. In addition, the IC50 turned out to be 0.334 µM with pERK in H727 cells and 0.797 µM with pERK in HCT116 cells.

`Cc1c(F)ccc2cc(O)cc(-c3ncc4c(N5CCCC(CS(N)(=O)=O)C5)nc(OC[C@@]56CCCN5C[C@H](F)C6)nc4c3F)c12` (stereo partly drawn) [Example 461, 1-(1-(8-fluoro-7-(7-fluoro-3-hydroxy-8-methylnaphthalen-1-yl)-2-(((2R,7aS)-2-fluorohexahydro-1H-pyrrolizin-7a-yl)methoxy)pyrido[4,3-d]pyrimidin-4-yl)piperidin-3-yl)methanesulfonamide]: the IC50 against KRas G12D is no more than 0.002 µM; on KRas G12V it was no more than 0.002 µM; at KRas G12R, no more than 0.002 µM; with pERK in MKN1 cells, 0.018 µM; with pERK in PSN1 cells it was 3.76 µM; in the assay on pERK in ASPC1 cells, 1.15 µM. Besides, the IC50 came to 0.239 µM in the assay with pERK in H727 cells and 0.172 µM in the assay with pERK in HCT116 cells.

As to `CCc1c(F)ccc2cc(O)cc(-c3ncc4c(NCC5CC(=O)NC5=O)nc(OC[C@@]56CCCN5C[C@H](F)C6)nc4c3F)c12` (stereo partly drawn) [Example 367, 3-(((7-(8-ethyl-7-fluoro-3-hydroxynaphthalen-1-yl)-8-fluoro-2-(((2R,7aS)-2-fluorohexahydro-1H-pyrrolizin-7a-yl)methoxy)pyrido[4,3-d]pyrimidin-4-yl)amino)methyl)pyrrolidine-2,5-dione], the IC50 is no more than 0.002 µM against KRas G12D; no more than 0.002 µM at KRas G12V; no more than 0.002 µM at KRas G12R; 0.058 µM in the assay with pERK in MKN1 cells; no less than 10 µM in the assay on pERK in PSN1 cells; 0.505 µM in the assay with pERK in ASPC1 cells. The values for the IC50 in the assay on pERK in H727 cells and in the assay on pERK in HCT116 cells were 0.244 µM and 0.375 µM, respectively.

`CCc1c(F)ccc2cc(O)cc(-c3ncc4c(N5CCCCC6(C5)NC(=O)NC6=O)nc(OC[C@@]56CCCN5C[C@H](F)C6)nc4c3F)c12` (stereo partly drawn) [Example 338, 7-(7-(8-ethyl-7-fluoro-3-hydroxynaphthalen-1-yl)-8-fluoro-2-(((2R,7aS)-2-fluorotetrahydro-1H-pyrrolizin-7a(5H)-yl)methoxy)pyrido[4,3-d]pyrimidin-4-yl)-1,3,7-triazaspiro[4.6]undecane-2,4-dione]: the IC50 was no more than 0.002 µM against KRas G12D; 0.003 µM against KRas G12V; 0.004 µM at KRas G12R; 0.024 µM in the assay with pERK in MKN1 cells; 2.88 µM with pERK in PSN1 cells; 0.695 µM with pERK in ASPC1 cells. Further, the IC50 was 0.377 µM in the assay on pERK in H727 cells and 0.487 µM in the assay with pERK in HCT116 cells.

Turning to `CCc1c(F)ccc2cc(O)cc(-c3ncc4c(N5CCCn6nc(CO)cc6C5)nc(OC[C@@]56CCCN5C[C@H](F)C6)nc4c3F)c12` [Example 341, 5-ethyl-6-fluoro-4-(8-fluoro-2-(((2R,7aS)-2-fluorohexahydro-1H-pyrrolizin-7a-yl)methoxy)-4-(2-(hydroxymethyl)-7,8-dihydro-4H-pyrazolo[1,5-a][1,4]diazepin-5(6H)-yl)pyrido[4,3-d]pyrimidin-7-yl)naphthalen-2-ol], the IC50 on KRas G12D was no more than 0.002 µM; at KRas G12V, 0.003 µM; on KRas G12R it was no more than 0.002 µM; with pERK in MKN1 cells it was 0.086 µM; in the assay with pERK in PSN1 cells it was no less than 10 µM; in the assay with pERK in ASPC1 cells, 0.472 µM. For the same compound, the figures for the IC50 in the assay on pERK in H727 cells and in the assay on pERK in HCT116 cells were 1.04 µM and 1.32 µM, respectively.

Regarding `CCc1c(F)ccc2cc(O)cc(-c3ncc4c(N5CCCC(N6CCCS6(=O)=O)C5)nc(OC[C@@]56CCCN5C[C@H](F)C6)nc4c3F)c12` (stereo partly drawn) [Example 348, 2-(1-(7-(8-ethyl-7-fluoro-3-hydroxynaphthalen-1-yl)-8-fluoro-2-(((2R,7aS)-2-fluorotetrahydro-1H-pyrrolizin-7a(5H)-yl)methoxy)pyrido[4,3-d]pyrimidin-4-yl)piperidin-3-yl)isothiazolidine 1,1-dioxide], the IC50 on KRas G12D was 0.006 µM; at KRas G12V, 0.003 µM; on KRas G12R, no more than 0.002 µM; in the assay with pERK in MKN1 cells, 0.007 µM; in the assay on pERK in PSN1 cells, no less than 10 µM; in the assay on pERK in ASPC1 cells, 0.275 µM. The IC50 stood at 0.273 µM with pERK in H727 cells and 0.245 µM in the assay with pERK in HCT116 cells.

`O=C1NC(=O)C2CN(c3nc(OC[C@@]45CCCN4C[C@H](F)C5)nc4c(F)c(-c5cc(O)cc6ccc(F)c(Br)c56)ncc34)CC12` (stereo partly drawn) [Example 404, 5-(7-(8-bromo-7-fluoro-3-hydroxynaphthalen-1-yl)-8-fluoro-2-(((2R,7aS)-2-fluorohexahydro-1H-pyrrolizin-7a-yl)methoxy)pyrido[4,3-d]pyrimidin-4-yl)tetrahydropyrrolo[3,4-c]pyrrole-1,3(2H,3aH)-dione]: the IC50 was no more than 0.002 µM against KRas G12D; no more than 0.002 µM on KRas G12V; no more than 0.002 µM on KRas G12R; 0.055 µM with pERK in MKN1 cells; no less than 10 µM in the assay on pERK in PSN1 cells; 0.136 µM in the assay on pERK in ASPC1 cells. Besides, the results for the IC50 in the assay on pERK in H727 cells and in the assay with pERK in HCT116 cells were 0.822 µM and 1.38 µM, respectively.

For the compound `OCC1COCCN(c2nc(OC[C@@]34CCCN3C[C@H](F)C4)nc3c(F)c(-c4cc(O)cc5ccc(F)c(Cl)c45)ncc23)C1` (stereo partly drawn) [Example 420, 5-chloro-6-fluoro-4-(8-fluoro-2-(((2R,7aS)-2-fluorohexahydro-1H-pyrrolizin-7a-yl)methoxy)-4-(6-(hydroxymethyl)-1,4-oxazepan-4-yl)pyrido[4,3-d]pyrimidin-7-yl)naphthalen-2-ol], the IC50 is 0.003 µM against KRas G12D; no more than 0.002 µM against KRas G12V; 0.004 µM against KRas G12R; 0.056 µM in the assay on pERK in MKN1 cells; no less than 10 µM in the assay with pERK in PSN1 cells; 0.859 µM in the assay on pERK in ASPC1 cells. Moreover, the IC50 with pERK in H727 cells came out at 0.366 µM; with pERK in HCT116 cells, 1.31 µM.

For the compound `CCc1c(F)ccc2cc(O)cc(-c3ncc4c(NC5CCS(=O)(=O)C5)nc(OC[C@@]56CCCN5C[C@H](F)C6)nc4c3F)c12` (stereo partly drawn) [Example 349, 3-((7-(8-ethyl-7-fluoro-3-hydroxynaphthalen-1-yl)-8-fluoro-2-(((2R,7aS)-2-fluorotetrahydro-1H-pyrrolizin-7a(5H)-yl)methoxy)pyrido[4,3-d]pyrimidin-4-yl)amino)tetrahydrothiophene 1,1-dioxide], the IC50 against KRas G12D is 0.02 µM; against KRas G12V it was 0.004 µM; against KRas G12R it was 0.007 µM; in the assay with pERK in MKN1 cells it was 0.149 µM; in the assay with pERK in PSN1 cells, no less than 10 µM; in the assay on pERK in ASPC1 cells, 0.475 µM. Besides, the IC50 came out at 1.86 µM in the assay on pERK in H727 cells and 2.25 µM in the assay on pERK in HCT116 cells.

Take `C#Cc1c(F)ccc2cc(O)cc(-c3ncc4c(N5CCCC6(C5)NC(=O)NC6=O)nc(OC[C@@]56CCCN5C[C@H](F)C6)nc4c3F)c12` (stereo partly drawn) [Example 397, 7-(7-(8-ethynyl-7-fluoro-3-hydroxynaphthalen-1-yl)-8-fluoro-2-(((2R,7aS)-2-fluorohexahydro-1H-pyrrolizin-7a-yl)methoxy)pyrido[4,3-d]pyrimidin-4-yl)-1,3,7-triazaspiro[4.5]decane-2,4-dione]: the IC50 on KRas G12D was no more than 0.002 µM; against KRas G12V it was no more than 0.002 µM; against KRas G12R it was no more than 0.002 µM; with pERK in ASPC1 cells it was 0.903 µM; with pERK in H727 cells it was 1 µM; in the assay on pERK in HCT116 cells, 1.46 µM.
